Source: patent US7776863B2, “Methods of treating HIV infection” (priority 2004, dated 2010)

Key:
HIV-1 Bal = experiment: Drug susceptibility assay, PM-1 cells infected with HIV-1 Bal, combinations with CCR5 inhibitors (p24 assay); format: cell-based; conditions: for Combination Indices at % HIV Inhibition (Confidence Interval) 50% / Combination Indices at % HIV Inhibition (Confidence Interval) 75% / Combination Indices at % HIV Inhibition (Confidence Interval) 90%: 95% confidence interval in parentheses
Experimental: (§1) Virus and cell lines. The T-cell lines, MT-2 and PM-1 were obtained through the AIDS Research and Reference Reagent Program, NIAID, and were contributed by Dr. D. Richman and Dr. R. Gallo, respectively. Both cell lines were cultured in RPMI 1640 medium supplemented with 10% fetal bovine serum, 2 mM L-glutamine and sub-cultured twice a week. The LAI strain of HIV-1 was obtained from the Fred Hutchinson Cancer Research Center, and the Bal strain was from NIH. Both virus stocks were amplified and titered in MT-2 cells (LAI) and PM-1 cells (Bal) using a virus infectivity assay.
(§2) Drug Susceptibility and Cytotoxicity Assays. For drug susceptibility assays, MT-2 cells were infected with HIV-1 LAI (or PM-1 cells with HIV-1 Bal) at an MOI of 0.005, and seeded into 96-well microtiter plates (0.1×10^6 cells/ml) containing serial dilutions of test compounds. […] Each drug ratio consisted of an array of 3-fold serial dilutions, and was performed in quadruplicate. The plates were incubated at 37° C./5% CO2. The MT-2 cells infected with HIV-1 LAI were incubated for 5 days. On day-five post-infection, 20 μl from each well was harvested and quantitated by a reverse transcriptase (RT) assay, or in samples involving non-nucleoside RT inhibitors, an MTS assay. The PM-1 cells infected with HIV-1 Bal and used for studying the combinations with CCR5 inhibitors were incubated for six days. On day-six post-infection, 20 μl from each well was harvested, 20- and 50-fold diluted and quantitated by p24 assay. Cytotoxicity assays were performed using uninfected cells, exposed to the same drug combinations, and incubated for six days. Cell viability was determined by an MTS assay. The CC50 values were calculated by using the exponential form of the median effect equation as mentioned below for calculation of EC50.
(§3) Analysis of Drug Combination Effects. For determination of CI values, drugs were diluted in a fixed ratio and multiple ratios were analyzed. The drug serial dilutions spanned a range of concentrations near the EC50 value of each compound, so that equivalent antiviral activities could be compared. Concentration-response curves were estimated for each individual drug and every combination using the median-effect equation. The equation was fit using a nonlinear regression routine (Proc Nlin) in PC SAS version 8.01 (SAS Institute Inc., SAS Version 8.01, Cary, N.C.: SAS Institute Inc., 1990).
(§4) In this equation, Fa stands for “fraction affected,” and represents the fraction of the viral load that has been inactivated. […] ED50 is drug concentration that is expected to reduce the amount of virus by 50%, and m is a parameter that reflects the slope of the concentration-response curve.
(§5) To assess antiviral effects of different drug combination treatments, combination indices (CIs) were calculated according to Chou and Rideout. The combination index was computed as CI=[D]1/[Dm]1+[D]2/[Dm]2
(§6) In this equation [Dm]1 and [Dm]2 are the concentrations of drugs that would individually produce a specific level of effect, while [D]1 and [D]2 are the concentrations of drugs in combination that would produce the same level of effect.
(§7) Theoretically, additivity is implied if the CI is equal to one, synergy if the CI is less than one, and antagonism if the CI is greater than one. […] At best, we can construct a range that contains the likely values for the CI, given the noise in the data. In this report, these ranges are reported in parentheses next to each point estimate of the CI. […] If the range fell entirely above 1.0, we would infer antagonistic behavior. If the range were to include 1.0, we would infer additivity.
(§8) In carrying out the combination experiments below, the EC50 for Compound 1 and each comparator compound was determined during the course of each study, and used in the subsequent data analysis.

HIV-1 LAI = experiment: microbe, parasite or virus in culture; conditions: for Combination Indices at % HIV Inhibition (Confidence Interval) 50% / Combination Indices at % HIV Inhibition (Confidence Interval) 75% / Combination Indices at % HIV Inhibition (Confidence Interval) 90%: 95% confidence interval in parentheses; for Overall Result (combined anti-HIV effect): all ratios, MT-2 cells, HIV-1 LAI; for EC50: Human immunodeficiency virus 1, MT2, 120 h
Experimental: as §1, §2, §3, §4, §5, §6, §7, §8

uninfected cells = experiment: Cytotoxicity assay of drug combinations, uninfected cells, MTS assay; format: cell-based; conditions: Compound 1 + other drug at the highest concentrations tested, 6 days
Experimental: as §2, with “Assays.” for “Assays. For drug susceptibility assays, MT-2 cells were infected with HIV-1 LAI (or PM-1 cells with HIV-1 Bal) at an MOI of 0.005, and seeded into 96-well microtiter plates (0.1×10^6 cells/ml) containing serial dilutions of test compounds.”, “The MT-2 cells infected with HIV-1 LAI were incubated for 5 days.” left out

[1] = Compound 1 + CCR5 inhibitor, EC50 ratio 1:1, PM-1 cells, HIV-1 Bal
[2] = Compound 1 + CCR5 inhibitor, EC50 ratio 1:2.5, PM-1 cells, HIV-1 Bal
[3] = Compound 1 + CCR5 inhibitor, EC50 ratio 2.5:1, PM-1 cells, HIV-1 Bal
[4] = Compound 1 + named drug, EC50 ratio 1:1 (Compound 1:comparator)
[5] = Compound 1 + named drug, EC50 ratio 1:2.5 (Compound 1:comparator)
[6] = Compound 1 + named drug, EC50 ratio 2.5:1 (Compound 1:comparator)

Structure (SMILES) | Combination Indices at % HIV Inhibition (Confidence Interval) 50% (HIV-1 LAI; [4]) | Combination Indices at % HIV Inhibition (Confidence Interval) 75% (HIV-1 LAI; [4]) | Combination Indices at % HIV Inhibition (Confidence Interval) 90% (HIV-1 LAI; [4]) | Combination Indices at % HIV Inhibition (Confidence Interval) 50% (HIV-1 LAI; [5]) | Combination Indices at % HIV Inhibition (Confidence Interval) 75% (HIV-1 LAI; [5]) | Combination Indices at % HIV Inhibition (Confidence Interval) 90% (HIV-1 LAI; [5]) | Combination Indices at % HIV Inhibition (Confidence Interval) 50% (HIV-1 LAI; [6]) | Combination Indices at % HIV Inhibition (Confidence Interval) 75% (HIV-1 LAI; [6]) | Combination Indices at % HIV Inhibition (Confidence Interval) 90% (HIV-1 LAI; [6]) | Overall Result (combined anti-HIV effect) (HIV-1 LAI; Compound 1 + named drug) | EC50 (HIV-1 LAI) [nM] | other results
CCO/N=C(\c1ccc(Br)cc1)C1CCN(C2(C)CCN(C(=O)c3c(C)cc[n+]([O-])c3C)CC2)CC1 [SchC] | – | – | – | – | – | – | – | – | – | – | – | Combination Indices at % HIV Inhibition (Confidence Interval) 50% (HIV-1 Bal; [1]): 0.19 (0.14, 0.25); Combination Indices at % HIV Inhibition (Confidence Interval) 75% (HIV-1 Bal; [1]): 0.46 (0.29, 0.63); Combination Indices at % HIV Inhibition (Confidence Interval) 90% (HIV-1 Bal; [1]): 1.12 (0.4, 1.83); Combination Indices at % HIV Inhibition (Confidence Interval) 50% (HIV-1 Bal; [2]): 0.50 (0.38, 0.61); Combination Indices at % HIV Inhibition (Confidence Interval) 75% (HIV-1 Bal; [2]): 0.92 (0.64, 1.21); Combination Indices at % HIV Inhibition (Confidence Interval) 90% (HIV-1 Bal; [2]): 1.74 (0.83, 2.65); Combination Indices at % HIV Inhibition (Confidence Interval) 50% (HIV-1 Bal; [3]): 0.08 (0.05, 0.11); Combination Indices at % HIV Inhibition (Confidence Interval) 75% (HIV-1 Bal; [3]): 0.21 (0.14, 0.28); Combination Indices at % HIV Inhibition (Confidence Interval) 90% (HIV-1 Bal; [3]): 0.54 (0.21, 0.88); Overall Result (combined anti-HIV effect) (HIV-1 Bal; Compound 1 + CCR5 inhibitor, all ratios, PM-1 cells, HIV-1 Bal): Additive-; EC50 (HIV-1 Bal; single drug, PM-1 cells infected with HIV-1 Bal, 6 days, p24 assay): 0.9 nM
CON(Cc1ccc(F)cc1)C(=O)C=C(O)C(=O)O [Compound 2, 3-[(4-Fluorobenzyl)methoxycarbamoyl]-2-hydroxyacrylic acid] | 0.48 (0.39, 0.58) | 0.51 (0.37, 0.65) | 0.54 (0.31, 0.76) | 0.44 (0.36, 0.53) | 0.51 (0.37, 0.65) | 0.59 (0.34, 0.85) | 0.50 (0.36, 0.63) | 0.70 (0.44, 0.97) | 1.00 (0.41, 1.59) | moderate synergistic | 79 | Overall Result (combined anti-HIV effect) (HIV-1 LAI; Compound 1 + named drug, listed as BMS-538203): Moderate-; Cytotoxicity of the drug combination (uninfected cells): No significant cytotoxicity
O=c1[nH]cnc2c1ncn2[C@H]1CC[C@@H](CO)O1 [Didanosine, didanosine] | 0.31 (0.29, 0.32) | 0.16 (0.15, 0.17) | 0.08 (0.08, 0.09) | 0.27 (0.23, 0.31) | 0.31 (0.24, 0.38) | 0.35 (0.23, 0.48) | 0.15 (0.11, 0.19) | 0.31 (0.22, 0.40) | 0.65 (0.31, 0.98) | Synergistic | 652 | –
CC(C)(C)NC(=O)[C@@H]1CN(Cc2cccnc2)CCN1C[C@@H](O)C[C@@H](Cc1ccccc1)C(=O)N[C@H]1c2ccccc2C[C@H]1O [Indinavir, indinavir] | 0.41 (0.26, 0.56) | 0.69 (0.34, 1.04) | 1.59 (0.29, 2.90) | 0.30 (0.18, 0.41) | 0.62 (0.32, 0.92) | 1.96 (0.29, 3.64) | 0.05 (0.03, 0.06) | 0.16 (0.13, 0.20) | 0.68 (0.39, 0.98) | Additive- | 3 | –
c1cc(CN2CCCNCCNCCCNCC2)ccc1CN1CCCNCCNCCCNCC1 [AMD-3100] | 0.44 (0.29, 0.60) | 0.62 (0.31, 0.92) | 0.98 (0.21, 1.76) | 0.56 (0.42, 0.70) | 0.54 (0.35, 0.73) | 0.66 (0.29, 1.02) | 0.52 (0.36, 0.68) | 0.61 (0.35, 0.88) | 0.77 (0.24, 1.31) | – | 5 | Combined effect at 90% inhibition level (HIV-1 LAI; Compound 1 + named drug): tendency to additivity; Combined effect at the 50 and 75% inhibition levels (HIV-1 LAI; Compound 1 + named drug): strongly synergistic
